Assay results taken from patent publication US20220315624A1, “THIOSTREPTON ANALOGS AND METHODS OF MAKING AND USING SAME” (YALE UNIVERSITY, priority 2019, published 2022).
Converted amounts (≈) assume the structure as drawn.

Columns and labels:
[1] = Un-inoculated solubility control plate (drug precipitation); format: physicochemical; details: for Precipitation in CAMHB: at 64 μg/mL in CAMHB
S. aureus isolates = experiment: MIC broth microdilution, S. aureus isolates; format: cell-based; details: Staphylococcus aureus; across MSSA and MRSA isolates; read-out: MIC values against S. aureus isolates
Method: (§1) Twenty-four test agents were shipped to Micromyx and stored at −20° C. until assayed. The compounds were dissolved in 100% DMSO at 6.46 mg/mL prior to testing. Comparator drugs were supplied by Micromyx and were handled as described below:
(§2) The test organisms for the assay were recent clinical isolates or reference strains acquired from the American Type Culture Collection (ATCC; Manassas, Va.). Upon receipt, the isolates were streaked onto Trypticase Soy Agar II+5% sheep blood (TSAB). Colonies were harvested from the plates and a cell suspension was prepared in Trypticase Soy Broth containing cryoprotectant. Aliquots were then frozen at −80° C. Prior to the assay, the frozen seeds of all bacterial isolates to be tested were thawed and streaked for isolation onto TSAB (BD/BBL, Sparks, Md.; Lot No. 9011894), and were incubated overnight at 35° C.
(§3) The test medium for all isolates was cation-adjusted Mueller Hinton broth (CAMHB; BD/BBL; Lot No. 8190586). CAMHB (Cation Adjusted Mueller Hinton Broth) was supplemented with 3% (v/v) lysed horse blood (LHB; Hemostat, Dixon, Calif.; Lot No. 474990) for the testing of streptococci.
(§4) MIC values were determined using a broth microdilution method as recommended by CLSI. Automated liquid handlers (Multidrop 384, Labsystems, Helsinki, Finland; Biomek 2000 and Biomek F/X, Beckman Coulter, Fullerton Calif.) were used to conduct serial dilutions and make liquid transfers.
(§5) The wells of standard 96-well microdilution plates (Costar 3795, Corning Inc., Corning, N.Y.) were filled with 150 μL of the appropriate diluent in columns 2-12 on the Multidrop 384 (DMSO for the thiostrepton analogs, deionized H2O for vancomycin and ceftazidime). These plates were used to prepare the drug “mother plate” which provided the serial drug dilutions for the replicate “daughter plates”. The compounds (300 μL) were dispensed at 101× the highest concentration to be tested into the appropriate row of the “mother plate”. The Biomek 2000 was used to transfer 150 μL of each stock solution from the wells in Column 1 of the mother plate to make ten subsequent 2-fold serial dilutions. The wells of Column 12 contained no drug and served as the organism growth control wells. The daughter plates were loaded with 190 μL of test medium using the Multidrop 384.
(§6) The daughter plates were prepared on the Biomek F/X instrument which transferred […] of drug solution from each well of the mother plate to each corresponding well of each daughter plate in a single step. The wells of the daughter plates ultimately contained 190 μL of media, 2 μL of drug solution, and 10 μL of inoculum prepared as described below. The final concentration of DMSO (if used as a solvent) in the test well was 1%.
(§7) A standardized inoculum of each organism was prepared per CLSI methods. A suspension of organisms from a fresh plate was prepared in CAMHB to equal the turbidity of a 0.5 McFarland standard. The suspensions were diluted 1:20 in CAMHB, or in the case of streptococci CAMHB with LHB. The inoculum for each organism was dispensed into sterile reservoirs divided by length (Beckman Coulter), and the Biomek 2000 was used to inoculate the plates. Daughter plates were placed on the Biomek 2000 work surface reversed so that inoculation took place from low to high drug concentration. The Biomek 2000 delivered 10 μL of standardized inoculum into each well. These dilutions yielded a final cell concentration in the daughter plates of approximately 5.0×10^5 CFU/mL.
(§8) Plates were stacked 3 high, covered with a lid on the top plate, placed in plastic bags, and incubated at 35° C. for 16-20 hr for all organisms except streptococci which were incubated for 20-24 hr. Following incubation, the microplates were removed from the incubator and viewed from the bottom using a plate viewer. The MIC was read and recorded as the lowest concentration of drug that inhibited visible growth of the organism. […]

[2] = Aqueous solubility analysis in MOPS buffer; format: physicochemical; details: aqueous 10 mM MOPS buffer, thermodynamic from solid; after 24 hours in 10 mM aqueous MOPS buffer, pH 7.2
Method: A 2 dram vial was loaded with ˜0.5 mg of a thiostrepton derivative and suspended in ˜4 mL of aqueous 10 mM MOPS buffer (pKa 7.2). The suspension was stirred vigorously for 24 h to ensure equilibration, then filtered through a […] centrifuge filtration unit. A 3.0 mL aliquot was concentrated, and the dried residue was diluted with 0.30 mL of 1:1 1,4-dioxane/H2O (10× original concentration necessitated by detection limits). The total UV absorbance (200-300 nm) was measured in triplicate by UPLC runs with a photodiode array detector. A calibration curve for each compound was created using data points from 3 trials each of concentrations in 1:1 1,4-dioxane/H2O ranging from […]. These concentrations were plotted against their respective average absorbances. The experimental concentration of each compound was calculated by dividing the found μg/mL value by the residue concentration factor of 10 to yield the actual solubility value.

[3] = system: S. aureus ATCC 29213 MSSA; experiment: MIC broth microdilution; format: cell-based; details: Staphylococcus aureus; S. aureus ATCC 29213 MSSA; CAMHB; read-out: MIC
Method: as §1, §2, §3, §4, §5, §6, §7, §8

E. faecium MMX 485 VRE = experiment: MIC broth microdilution; format: cell-based; details: Enterococcus faecium; E. faecium MMX 485 VRE; CAMHB; read-out: MIC
Method: as §1, §2, §3, §4, §5, §6, §7, §8

[4] = system: E. faecalis ATCC 29212 VSE; experiment: MIC broth microdilution; format: cell-based; details: Enterococcus faecalis, ATCC29212; E. faecalis ATCC 29212 VSE; CAMHB; read-out: MIC
Method: as §1, §2, §3, §4, §5, §6, §7, §8

S. aureus MMX 8088 MRSA = experiment: MIC broth microdilution; format: cell-based; details: Staphylococcus aureus; S. aureus MMX 8088 MRSA; CAMHB; read-out: MIC
Method: as §1, §2, §3, §4, §5, §6, §7, §8

E. faecalis MMX 486 VRE = experiment: MIC broth microdilution; format: cell-based; details: Enterococcus faecalis; E. faecalis MMX 486 VRE; CAMHB; read-out: MIC
Method: as §1, §2, §3, §4, §5, §6, §7, §8

E. coli ATCC 25922 = experiment: MIC broth microdilution; format: cell-based; details: Escherichia coli, ATCC25922; E. coli ATCC 25922; CAMHB; read-out: MIC
Method: as §1, §2, §3, §4, §5, §6, §7, §8

[5] = system: S. pneumoniae ATCC 49619 PISP; experiment: MIC broth microdilution; format: cell-based; details: Streptococcus pneumoniae, ATCC49619, 20 h; S. pneumoniae ATCC 49619 PISP; CAMHB with 3% lysed horse blood; read-out: MIC
Method: as §1, §2, §3, §4, §5, §6, §7, §8

S. pyogenes ATCC 19615 = experiment: MIC broth microdilution; format: cell-based; details: Streptococcus pyogenes, ATCC19615, 20 h; S. pyogenes ATCC 19615; CAMHB with 3% lysed horse blood; read-out: MIC
Method: as §1, §2, §3, §4, §5, §6, §7, §8

E. faecium MMX 708 VSE = experiment: MIC broth microdilution; format: cell-based; details: Enterococcus faecium, MMX708VSE; E. faecium MMX 708 VSE; CAMHB; read-out: MIC
Method: as §1, §2, §3, §4, §5, §6, §7, §8

[6] = system: E. faecalis and E. faecium; experiment: MIC broth microdilution, summary over enterococci; format: cell-based; details: across the evaluated enterococci, VSE and VRE
Method: as §1, §2, §3, §4, §5, §6, §7, §8

Gram-positive cocci = experiment: MIC broth microdilution, overall summary; format: cell-based; details: summary of MIC testing
Method: as §1, §2, §3, §4, §5
The daughter plates were prepared on the Biomek F/X instrument which transferred […] of drug solution from each well of the mother plate to each corresponding well of each daughter plate in a single step. […]
Plates were stacked 3 high, covered with a lid on the top plate, placed in plastic bags, and incubated at 35° C. for 16-20 hr for all organisms except streptococci which were incubated for 20-24 hr. […] The MIC was read and recorded as the lowest concentration of drug that inhibited visible growth of the organism. […]

Row | SMILES | Precipitation in CAMHB in LHB ([1]; at 64 μg/mL in CAMHB in LHB) | MIC (S. aureus isolates) [µg/mL] | solubility at 24 h [2] [µg/mL] | MIC [3] [µg/mL] | MIC (E. faecium MMX 485 VRE) [µg/mL] | MIC [4] [µg/mL] | MIC (S. aureus MMX 8088 MRSA) [µg/mL] | MIC (E. faecalis MMX 486 VRE) [µg/mL] | MIC (E. coli ATCC 25922) [µg/mL] | MIC [5] [µg/mL] | MIC (S. pyogenes ATCC 19615) [µg/mL] | MIC (E. faecium MMX 708 VSE) [µg/mL] | MIC values against E. faecalis and E. faecium [6] [µg/mL] | MIC ([6]; read-out: MIC values against E. faecalis and E. faecium) [µg/mL] | Precipitation in CAMHB [1] | Activity among the evaluated analogs / against evaluated Gram-positive cocci (summary in words) (Gram-positive cocci)
1 | C=C(NC(=O)c1csc(C2=N[C@@H]3c4csc(n4)[C@H]4NC(=O)c5csc(n5)[C@H]([C@](C)(O)[C@@H](C)O)NC(=O)C5CSC(=N5)/C(=C/C)NC(=O)[C@H]([C@@H](C)O)NC(=O)c5csc(n5)[C@]3(CC2)NC(=O)[C@H](C)NC(=O)C(=C)NC(=O)[C@H](C)NC(=O)[C@H]([C@@H](C)CC)N[C@@H]2C=Cc3c([C@H](C)O)cc(nc3[C@H]2O)C(=O)O[C@@H]4C)n1)C(=O)NC(=CNC(=O)c1cccc(/C=N/O)c1)C(N)=O [RJS-17] | distinct precipitation | 0.25 to 0.5 (≈ 0.137 to 0.274 µM) | < 1 | 0.5 (≈ 0.274 µM) | 0.5 (≈ 0.274 µM) | 1 (≈ 0.547 µM) | 0.5 (≈ 0.274 µM) | 0.5 (≈ 0.274 µM) | > 64 | 0.002 (≈ 0.00109 µM) | 0.004 (≈ 0.00219 µM) | 0.5 (≈ 0.274 µM) | – | – | – | –
2 | C=C(NC(=O)c1csc(C2=N[C@@H]3c4csc(n4)[C@H]4NC(=O)c5csc(n5)[C@H]([C@](C)(O)[C@@H](C)O)NC(=O)C5CSC(=N5)/C(=C/C)NC(=O)[C@H]([C@@H](C)O)NC(=O)c5csc(n5)[C@]3(CC2)NC(=O)[C@H](C)NC(=O)C(=C)NC(=O)[C@H](C)NC(=O)[C@H]([C@@H](C)CC)N[C@@H]2C=Cc3c([C@H](C)O)cc(nc3[C@H]2O)C(=O)O[C@@H]4C)n1)C(=O)NC(=CNC(=O)c1cccc(/C=N/OCCO)c1)C(N)=O [RJS-14] | – | 0.25 to 0.5 (≈ 0.134 to 0.267 µM) | 1.4 (≈ 0.748 µM) | 0.5 (≈ 0.267 µM) | 0.5 (≈ 0.267 µM) | 0.5 (≈ 0.267 µM) | 0.5 (≈ 0.267 µM) | 0.5 (≈ 0.267 µM) | > 64 | 0.004 (≈ 0.00214 µM) | 0.004 (≈ 0.00214 µM) | 1 (≈ 0.534 µM) | – | – | – | –
3 | C=C(NC(=O)c1csc(C2=N[C@@H]3c4csc(n4)[C@H]4NC(=O)c5csc(n5)[C@H]([C@](C)(O)[C@@H](C)O)NC(=O)C5CSC(=N5)/C(=C/C)NC(=O)[C@H]([C@@H](C)O)NC(=O)c5csc(n5)[C@]3(CC2)NC(=O)[C@H](C)NC(=O)C(=C)NC(=O)[C@H](C)NC(=O)[C@H]([C@@H](C)CC)N[C@@H]2C=Cc3c([C@H](C)O)cc(nc3[C@H]2O)C(=O)O[C@@H]4C)n1)C(=O)NC(=CNC(=O)c1cccc(/C=N/OC)c1)C(N)=O [RJS-11] | – | 0.25 to 0.5 (≈ 0.136 to 0.272 µM) | < 1 | 0.5 (≈ 0.272 µM) | 0.25 (≈ 0.136 µM) | 0.5 (≈ 0.272 µM) | 0.5 (≈ 0.272 µM) | 0.25 (≈ 0.136 µM) | > 64 | < 0.001 | < 0.001 | 0.25 (≈ 0.136 µM) | 0.5 (≈ 0.272 µM) | 0.25 (≈ 0.136 µM) | distinct precipitation | most activity
4 | C=C(NC(=O)c1csc(C2=N[C@@H]3c4csc(n4)[C@H]4NC(=O)c5csc(n5)[C@H]([C@](C)(O)[C@@H](C)O)NC(=O)C5CSC(=N5)/C(=C/C)NC(=O)[C@H]([C@@H](C)O)NC(=O)c5csc(n5)[C@]3(CC2)NC(=O)[C@H](C)NC(=O)C(=C)NC(=O)[C@H](C)NC(=O)[C@H]([C@@H](C)CC)N[C@@H]2C=Cc3c([C@H](C)O)cc(nc3[C@H]2O)C(=O)O[C@@H]4C)n1)C(=O)NC(=CNC(=O)COCCOC)C(N)=O [RJS-10] | – | – | 19 (≈ 10.6 µM) | 1 (≈ 0.557 µM) | 1 (≈ 0.557 µM) | 1 (≈ 0.557 µM) | 1 (≈ 0.557 µM) | 1 (≈ 0.557 µM) | > 64 | 0.015 (≈ 0.00835 µM) | 0.015 (≈ 0.00835 µM) | 1 (≈ 0.557 µM) | – | – | distinct precipitation | –
5 | C=C(NC(=O)c1csc(C2=N[C@@H]3c4csc(n4)[C@H]4NC(=O)c5csc(n5)[C@H]([C@](C)(O)[C@@H](C)O)NC(=O)C5CSC(=N5)/C(=C/C)NC(=O)[C@H]([C@@H](C)O)NC(=O)c5csc(n5)[C@]3(CC2)NC(=O)[C@H](C)NC(=O)C(=C)NC(=O)[C@H](C)NC(=O)[C@H]([C@@H](C)CC)N[C@@H]2C=Cc3c([C@H](C)O)cc(nc3[C@H]2O)C(=O)O[C@@H]4C)n1)C(=O)NC(=CNC(=O)C(C)C)C(N)=O [RJS-04] | – | 0.25 to 0.5 (≈ 0.143 to 0.286 µM) | 16.2 (≈ 9.26 µM) | 0.5 (≈ 0.286 µM) | 0.25 (≈ 0.143 µM) | 0.5 (≈ 0.286 µM) | 0.5 (≈ 0.286 µM) | 1 (≈ 0.571 µM) | > 64 | 0.004 (≈ 0.00229 µM) | 0.004 (≈ 0.00229 µM) | 1 (≈ 0.571 µM) | – | – | distinct precipitation | –
